Test results from ChEMBL document CHEMBL1123931, “N10-substituted 5,8-dideazafolate inhibitors of glycinamide ribonucleotide transformylase” (J Med Chem, 1987).

Legend:
[1] = biological target: T1, Trifunctional purine biosynthetic protein adenosine-3 (Mus musculus, UniProt Q64737); assay: Inhibition of GAR transformylase isolated from murine lymphoma cell line L5178Y; assay type: cell-free
T1 sequence (Q64737 whole entry): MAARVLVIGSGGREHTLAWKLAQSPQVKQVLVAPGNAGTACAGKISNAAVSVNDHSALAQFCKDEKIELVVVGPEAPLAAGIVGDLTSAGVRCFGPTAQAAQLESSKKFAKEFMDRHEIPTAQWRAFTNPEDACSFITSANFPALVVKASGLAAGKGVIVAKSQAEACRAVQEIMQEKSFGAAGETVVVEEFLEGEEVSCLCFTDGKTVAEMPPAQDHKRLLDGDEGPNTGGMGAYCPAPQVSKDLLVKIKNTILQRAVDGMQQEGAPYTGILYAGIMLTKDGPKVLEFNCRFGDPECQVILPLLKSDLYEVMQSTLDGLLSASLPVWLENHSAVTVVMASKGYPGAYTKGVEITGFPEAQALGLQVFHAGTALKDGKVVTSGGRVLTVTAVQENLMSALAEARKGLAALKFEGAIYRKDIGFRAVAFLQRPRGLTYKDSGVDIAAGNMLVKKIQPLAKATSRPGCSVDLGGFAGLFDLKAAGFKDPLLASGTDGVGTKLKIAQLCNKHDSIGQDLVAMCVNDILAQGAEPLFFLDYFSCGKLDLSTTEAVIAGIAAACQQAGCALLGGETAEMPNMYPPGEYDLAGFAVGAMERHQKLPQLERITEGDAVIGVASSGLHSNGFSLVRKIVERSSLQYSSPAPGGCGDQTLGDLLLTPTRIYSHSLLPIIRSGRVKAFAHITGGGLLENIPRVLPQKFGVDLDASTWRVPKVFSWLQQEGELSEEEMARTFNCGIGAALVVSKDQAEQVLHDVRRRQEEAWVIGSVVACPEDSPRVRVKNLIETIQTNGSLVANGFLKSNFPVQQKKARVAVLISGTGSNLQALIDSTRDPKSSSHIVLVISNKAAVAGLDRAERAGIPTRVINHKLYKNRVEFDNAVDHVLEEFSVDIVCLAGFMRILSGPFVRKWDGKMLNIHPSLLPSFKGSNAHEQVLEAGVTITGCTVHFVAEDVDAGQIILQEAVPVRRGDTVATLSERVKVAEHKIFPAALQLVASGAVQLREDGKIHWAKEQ

[2] = biological target: T1, Trifunctional purine biosynthetic protein adenosine-3; assay: Inhibition of GAR transformylase isolated from the murine lymphoma cell line L5178Y; assay type: cell-free

| Structure (SMILES) | Ki [1] [µM] | Ki [2] [µM] |
| --- | --- | --- |
| CCN(Cc1ccc2nc(N)nc(O)c2c1)c1ccc(C(=O)NC(CCC(=O)O)C(=O)O)cc1 (configuration not stated) |  | 16 |
| Nc1nc2ccc(CN(Cc3cccc(F)c3)c3ccc(C(=O)NC(CCC(=O)O)C(=O)O)cc3)cc2c(=O)[nH]1 (configuration not stated) | 18 |  |
| Nc1nc2ccc(CN(Cc3c[nH]c(=O)[nH]c3=O)c3ccc(C(=O)NC(CCC(=O)O)C(=O)O)cc3)cc2c(=O)[nH]1 (configuration not stated) | 7 |  |
| N#CCCCN(Cc1ccc2nc(N)nc(O)c2c1)c1ccc(C(=O)NC(CCC(=O)O)C(=O)O)cc1 (configuration not stated) | 11 |  |
| Nc1nc2ccc(CN(CC3CC3)c3ccc(C(=O)NC(CCC(=O)O)C(=O)O)cc3)cc2c(=O)[nH]1 (configuration not stated) | 8 |  |
| CC(C)N(Cc1ccc2nc(N)nc(O)c2c1)c1ccc(C(=O)NC(CCC(=O)O)C(=O)O)cc1 (configuration not stated) | 19 |  |
| Nc1nc2ccc(CN(CCC(=O)O)c3ccc(C(=O)NC(CCC(=O)O)C(=O)O)cc3)cc2c(=O)[nH]1 (configuration not stated) | 32 |  |
| C#CCN(Cc1ccc2[nH]c(N)nc(=O)c2c1)c1ccc(C(=O)NC(CCC(=O)O)C(=O)O)cc1 (configuration not stated) | 6 |  |

Further lines, results first:

| Ki [1] [µM] | Ki [2] [µM] | Structure (SMILES) |
| --- | --- | --- |
| 1.3 |  | CC(=O)N(Cc1ccc2nc(N)[nH]c(=O)c2c1)c1ccc(C(=O)NC(CCC(=O)O)C(=O)O)cc1 (configuration not stated) |
| 5 |  | Nc1nc2ccc(CN(CC(=O)O)c3ccc(C(=O)NC(CCC(=O)O)C(=O)O)cc3)cc2c(=O)[nH]1 (configuration not stated) |
| 3 |  | Nc1nc(O)c2cc(CN(CC(=O)c3ccccc3)c3ccc(C(=O)NC(CCC(=O)O)C(=O)O)cc3)ccc2n1 (configuration not stated) |
| 2 |  | Nc1nc(O)c2cc(CNc3ccc(C(=O)NC(CCC(=O)O)C(=O)O)cc3)ccc2n1 (configuration not stated) [DIDEAZAFOLATE] |
